# According to doi:10.1101/2021.04.08.439011v1 (biorxiv, 2021):
# Read-outs that look alike come from different tables or passages of the source.
# Assays:
# BMX = BMX (Homo sapiens, UniProt P51813); conditions: 1 µM; binder
# IRAK3 = IRAK3 (Homo sapiens, UniProt Q9Y616); conditions: 1 µM; binder
# ABL1(F317I) = ABL1(F317I) (Homo sapiens, UniProt P00519, F317I); conditions: 1 µM, binder
# CAMK4 = CAMK4 (Homo sapiens, UniProt Q16566); conditions: 1 µM; binder
# ABL1(M351T) = ABL1(M351T) (Homo sapiens, UniProt P00519, M351T); conditions: phosphorylated; 1 µM; binder
# SRC = SRC (Homo sapiens, UniProt P12931); conditions: 1 µM; binder
# YANK3 = YANK3 (Homo sapiens, UniProt Q86UX6); conditions: 1 µM; binder
# EGFR(L861Q) = EGFR(L861Q) (Homo sapiens, UniProt P00533, L861Q); conditions: 1 µM; binder
# CDK7 = CDK7 (Homo sapiens, UniProt P50613); conditions: 1 µM; binder
# IKK-alpha = IKK-alpha (Homo sapiens, UniProt O15111); conditions: 1 µM; binder
# PKN2 = PKN2 (Homo sapiens, UniProt Q16513); conditions: 1 µM; binder
# NEK6 = NEK6 (Homo sapiens, UniProt Q9HC98); conditions: 1 µM; binder
# RET(M918T) = RET(M918T) (Homo sapiens, UniProt P07949, M918T); conditions: 1 µM; binder
# WNK1 = WNK1 (Homo sapiens, UniProt Q9H4A3); conditions: 1 µM; binder
# PRKCQ = PRKCQ (Homo sapiens, UniProt Q04759); conditions: 1 µM; binder
# FLT3(ITD,F691L) = FLT3(ITD,F691L) (Homo sapiens, UniProt P36888, F691L/ITD); conditions: 1 µM; binder
# STK16 = STK16 (Homo sapiens, UniProt O75716); conditions: 1 µM; binder
# YES = YES (Homo sapiens, UniProt P07947); conditions: 1 µM; binder
# TRPM6 = TRPM6 (Homo sapiens, UniProt Q9BX84); conditions: 1 µM; binder
# ABL1(H396P) = ABL1(H396P) (Homo sapiens, UniProt P00519, H396P); conditions: 1 µM, binder
# PNCK = PNCK (Homo sapiens, UniProt Q6P2M8); conditions: 1 µM; binder
# GSK3B = GSK3B (Homo sapiens, UniProt P49841); conditions: 1 µM; binder
# ERK1 = ERK1 (Homo sapiens, UniProt P27361); conditions: 1 µM; binder
# HCK = HCK (Homo sapiens, UniProt P08631); conditions: 1 µM; binder
# TNIK = TNIK (Homo sapiens, UniProt Q9UKE5); conditions: 1 µM; binder
# PRKCE = PRKCE (Homo sapiens, UniProt Q02156); conditions: 1 µM; binder
# EGFR(L858R,T790M) = EGFR(L858R,T790M) (Homo sapiens, UniProt P00533, L858R/T790M); conditions: 1 µM; binder
# SIK1 = SIK1 (Homo sapiens, UniProt P57059); conditions: 1 µM; binder
# MAP3K4 = MAP3K4 (Homo sapiens, UniProt Q9Y6R4); conditions: 1 µM; binder
# Chain of FLT3(ITD,F691L) (P36888 564-993 F691L): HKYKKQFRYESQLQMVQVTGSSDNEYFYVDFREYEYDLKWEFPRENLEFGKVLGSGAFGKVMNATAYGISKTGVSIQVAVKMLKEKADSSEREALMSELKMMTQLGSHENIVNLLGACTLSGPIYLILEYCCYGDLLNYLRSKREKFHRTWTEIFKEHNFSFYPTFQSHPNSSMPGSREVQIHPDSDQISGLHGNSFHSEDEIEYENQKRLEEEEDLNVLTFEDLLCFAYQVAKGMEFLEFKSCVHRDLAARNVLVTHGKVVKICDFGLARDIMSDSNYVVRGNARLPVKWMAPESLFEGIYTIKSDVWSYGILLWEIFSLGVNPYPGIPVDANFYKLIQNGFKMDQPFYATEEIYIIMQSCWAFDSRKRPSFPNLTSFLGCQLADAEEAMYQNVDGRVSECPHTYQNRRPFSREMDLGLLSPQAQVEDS
# Chain of YES (P07947 whole entry): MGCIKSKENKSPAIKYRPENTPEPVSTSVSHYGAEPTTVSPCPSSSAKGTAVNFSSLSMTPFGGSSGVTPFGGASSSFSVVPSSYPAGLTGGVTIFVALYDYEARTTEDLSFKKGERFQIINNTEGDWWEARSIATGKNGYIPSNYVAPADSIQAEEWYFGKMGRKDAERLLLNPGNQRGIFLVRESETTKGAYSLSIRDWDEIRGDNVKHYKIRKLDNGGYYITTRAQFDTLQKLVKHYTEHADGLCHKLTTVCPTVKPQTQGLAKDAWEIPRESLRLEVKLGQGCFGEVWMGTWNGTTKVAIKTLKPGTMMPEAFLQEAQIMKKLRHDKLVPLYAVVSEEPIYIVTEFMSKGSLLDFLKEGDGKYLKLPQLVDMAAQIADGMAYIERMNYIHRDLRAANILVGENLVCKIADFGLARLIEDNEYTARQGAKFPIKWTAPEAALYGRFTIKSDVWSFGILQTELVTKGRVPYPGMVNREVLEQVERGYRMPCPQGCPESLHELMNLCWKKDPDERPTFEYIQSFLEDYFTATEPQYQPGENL
# Chain of TRPM6 (Q9BX84 whole entry): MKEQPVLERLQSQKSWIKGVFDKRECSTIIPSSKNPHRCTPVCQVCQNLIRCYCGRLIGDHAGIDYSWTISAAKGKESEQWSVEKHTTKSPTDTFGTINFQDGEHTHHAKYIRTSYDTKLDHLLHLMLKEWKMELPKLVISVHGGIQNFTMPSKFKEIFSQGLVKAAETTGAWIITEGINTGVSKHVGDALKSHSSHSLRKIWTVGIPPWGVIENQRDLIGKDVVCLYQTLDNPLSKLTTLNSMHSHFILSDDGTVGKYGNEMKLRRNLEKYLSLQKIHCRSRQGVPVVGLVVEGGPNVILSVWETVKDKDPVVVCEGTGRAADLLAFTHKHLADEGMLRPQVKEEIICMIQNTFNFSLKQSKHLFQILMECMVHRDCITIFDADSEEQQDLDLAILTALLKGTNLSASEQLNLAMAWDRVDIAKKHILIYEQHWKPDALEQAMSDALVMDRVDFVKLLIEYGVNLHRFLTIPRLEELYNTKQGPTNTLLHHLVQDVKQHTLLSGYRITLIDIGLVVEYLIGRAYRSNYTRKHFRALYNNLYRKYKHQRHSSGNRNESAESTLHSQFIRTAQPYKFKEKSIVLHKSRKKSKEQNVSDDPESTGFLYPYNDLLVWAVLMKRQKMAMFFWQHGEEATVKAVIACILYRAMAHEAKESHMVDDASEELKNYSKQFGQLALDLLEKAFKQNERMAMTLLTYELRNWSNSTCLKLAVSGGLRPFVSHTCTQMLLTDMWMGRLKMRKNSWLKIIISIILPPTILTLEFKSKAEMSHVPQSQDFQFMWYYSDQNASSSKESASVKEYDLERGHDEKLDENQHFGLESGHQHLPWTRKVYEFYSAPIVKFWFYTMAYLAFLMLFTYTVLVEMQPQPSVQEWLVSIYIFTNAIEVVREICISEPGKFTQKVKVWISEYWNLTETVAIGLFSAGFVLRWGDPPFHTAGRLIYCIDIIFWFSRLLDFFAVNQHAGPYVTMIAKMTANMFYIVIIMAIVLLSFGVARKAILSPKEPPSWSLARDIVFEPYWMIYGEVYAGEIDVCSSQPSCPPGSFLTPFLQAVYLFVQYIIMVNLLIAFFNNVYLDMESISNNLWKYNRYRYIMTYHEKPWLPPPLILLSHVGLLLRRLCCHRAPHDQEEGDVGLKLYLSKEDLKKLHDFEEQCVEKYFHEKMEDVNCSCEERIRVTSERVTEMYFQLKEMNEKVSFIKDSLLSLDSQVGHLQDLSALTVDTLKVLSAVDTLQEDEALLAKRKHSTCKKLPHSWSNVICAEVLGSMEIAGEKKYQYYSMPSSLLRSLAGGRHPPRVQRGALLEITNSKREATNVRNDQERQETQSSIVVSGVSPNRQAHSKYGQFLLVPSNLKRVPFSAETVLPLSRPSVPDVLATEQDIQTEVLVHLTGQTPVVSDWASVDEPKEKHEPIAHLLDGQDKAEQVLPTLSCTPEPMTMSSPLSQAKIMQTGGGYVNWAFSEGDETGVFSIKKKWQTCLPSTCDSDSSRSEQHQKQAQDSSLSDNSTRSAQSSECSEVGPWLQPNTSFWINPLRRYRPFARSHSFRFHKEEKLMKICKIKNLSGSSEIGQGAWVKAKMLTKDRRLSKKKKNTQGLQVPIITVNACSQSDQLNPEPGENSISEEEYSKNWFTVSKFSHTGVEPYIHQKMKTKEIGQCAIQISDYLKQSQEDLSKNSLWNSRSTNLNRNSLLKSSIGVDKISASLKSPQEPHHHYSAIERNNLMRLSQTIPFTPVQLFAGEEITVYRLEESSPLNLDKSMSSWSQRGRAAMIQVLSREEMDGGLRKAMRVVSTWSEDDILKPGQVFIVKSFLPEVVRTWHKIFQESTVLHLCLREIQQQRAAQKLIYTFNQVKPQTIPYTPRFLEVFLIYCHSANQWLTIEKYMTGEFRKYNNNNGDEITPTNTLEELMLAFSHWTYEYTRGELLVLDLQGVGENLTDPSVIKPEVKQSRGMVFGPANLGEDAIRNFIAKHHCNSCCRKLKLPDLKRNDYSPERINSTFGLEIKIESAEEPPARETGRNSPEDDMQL
# Chain of RET(M918T) (P07949 whole entry M918T): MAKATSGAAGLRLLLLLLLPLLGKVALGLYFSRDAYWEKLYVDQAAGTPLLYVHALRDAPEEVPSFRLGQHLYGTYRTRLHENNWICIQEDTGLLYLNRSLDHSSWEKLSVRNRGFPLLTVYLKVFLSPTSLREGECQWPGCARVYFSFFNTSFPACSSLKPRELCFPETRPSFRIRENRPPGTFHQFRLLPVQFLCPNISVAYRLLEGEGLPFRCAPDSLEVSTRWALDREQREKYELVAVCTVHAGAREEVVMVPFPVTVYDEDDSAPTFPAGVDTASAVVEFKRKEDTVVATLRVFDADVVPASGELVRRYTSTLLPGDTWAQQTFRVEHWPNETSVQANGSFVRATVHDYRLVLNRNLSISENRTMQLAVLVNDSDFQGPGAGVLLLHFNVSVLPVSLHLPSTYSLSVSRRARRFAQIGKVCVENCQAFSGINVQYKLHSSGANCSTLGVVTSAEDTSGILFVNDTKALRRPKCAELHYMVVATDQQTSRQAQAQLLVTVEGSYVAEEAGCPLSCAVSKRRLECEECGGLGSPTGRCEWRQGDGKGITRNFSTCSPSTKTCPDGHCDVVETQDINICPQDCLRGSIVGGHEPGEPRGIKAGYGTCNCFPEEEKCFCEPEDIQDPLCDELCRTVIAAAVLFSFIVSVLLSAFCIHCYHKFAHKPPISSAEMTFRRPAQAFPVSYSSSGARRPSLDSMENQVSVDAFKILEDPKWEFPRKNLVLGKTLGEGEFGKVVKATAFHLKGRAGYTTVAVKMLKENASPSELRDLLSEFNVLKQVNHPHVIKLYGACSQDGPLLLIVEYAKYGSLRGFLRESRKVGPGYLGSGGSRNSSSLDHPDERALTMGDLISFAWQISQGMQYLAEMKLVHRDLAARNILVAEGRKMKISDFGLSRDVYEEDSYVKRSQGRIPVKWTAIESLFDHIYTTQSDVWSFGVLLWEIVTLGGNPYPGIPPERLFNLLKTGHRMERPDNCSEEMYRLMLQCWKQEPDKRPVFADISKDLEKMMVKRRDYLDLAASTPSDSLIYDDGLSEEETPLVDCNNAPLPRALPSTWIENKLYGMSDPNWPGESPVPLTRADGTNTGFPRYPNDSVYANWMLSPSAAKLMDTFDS
# Chain of PNCK (Q6P2M8 whole entry): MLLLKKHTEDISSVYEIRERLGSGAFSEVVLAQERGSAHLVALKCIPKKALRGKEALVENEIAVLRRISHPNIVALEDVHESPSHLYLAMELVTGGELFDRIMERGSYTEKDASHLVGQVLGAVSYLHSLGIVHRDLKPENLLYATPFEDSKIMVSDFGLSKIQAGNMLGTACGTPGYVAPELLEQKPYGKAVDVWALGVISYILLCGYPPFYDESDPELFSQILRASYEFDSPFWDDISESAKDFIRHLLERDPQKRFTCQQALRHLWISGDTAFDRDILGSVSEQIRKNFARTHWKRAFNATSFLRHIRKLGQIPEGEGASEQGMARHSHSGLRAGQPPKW
# Chain of HCK (P08631 whole entry): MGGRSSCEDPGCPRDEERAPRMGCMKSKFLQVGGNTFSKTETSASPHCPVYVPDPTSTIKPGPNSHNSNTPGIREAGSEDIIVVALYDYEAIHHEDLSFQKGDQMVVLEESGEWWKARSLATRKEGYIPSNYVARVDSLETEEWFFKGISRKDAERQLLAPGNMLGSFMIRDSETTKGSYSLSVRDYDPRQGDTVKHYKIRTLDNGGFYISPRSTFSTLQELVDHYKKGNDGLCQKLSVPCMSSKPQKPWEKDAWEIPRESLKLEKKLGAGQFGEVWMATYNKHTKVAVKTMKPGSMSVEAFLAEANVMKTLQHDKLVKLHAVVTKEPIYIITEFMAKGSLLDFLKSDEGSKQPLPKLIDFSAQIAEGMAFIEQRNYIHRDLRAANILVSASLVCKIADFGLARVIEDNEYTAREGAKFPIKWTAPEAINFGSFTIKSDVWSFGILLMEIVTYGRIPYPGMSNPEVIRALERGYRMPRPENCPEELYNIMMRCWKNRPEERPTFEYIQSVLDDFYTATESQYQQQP
smiles,measurement,setting,value
"CNc1ncc2cc(-c3ccc(-c4cccc(C)n4)cc3Cl)c(=O)n(C[C@H]3OC[C@H](N)CO3)c2n1 [compound 6, G-5555]",Percent Control,BMX,100%
same,Percent Control,IRAK3,92%
same,Percent Control,ABL1(F317I); nonphosphorylated,100%
same,Percent Control,ABL1(F317I); phosphorylated,96%
same,Percent Control,CAMK4,96%
same,Percent Control,ABL1(M351T),100%
same,Percent Control,SRC,100%
same,Percent Control,YANK3,79%
same,Percent Control,EGFR(L861Q),100%
same,Percent Control,CDK7,86%
same,Percent Control,IKK-alpha,98%
same,Percent Control,PKN2,100%
same,Percent Control,NEK6,100%
same,Percent Control,RET(M918T),100%
same,Percent Control,WNK1,69%
same,Percent Control,PRKCQ,55%
same,Percent Control,"FLT3(ITD,F691L)",43%
same,Percent Control,STK16,69%
same,Percent Control,YES,100%
same,Percent Control,TRPM6,100%
same,Percent Control,ABL1(H396P); nonphosphorylated,56%
same,Percent Control,ABL1(H396P); phosphorylated,94%
same,Percent Control,PNCK,30%
same,Percent Control,GSK3B,100%
same,Percent Control,ERK1,74%
same,Percent Control,HCK,100%
same,Percent Control,TNIK,51%
same,Percent Control,PRKCE,71%
same,Percent Control,"EGFR(L858R,T790M)",100%
same,Percent Control,SIK1,0.6%
same,Percent Control,MAP3K4,52%
